Measurements from patent US7105307B2, “Compositions and methods for screening for modulators of enzymatic activity” (Cyclacel, Ltd., priority 1997, dated 2006).
Where no end group is shown, it is not given here. rhodamine = not defined here

Columns and labels:
[1] = tested on: PKA; experiment: Timecourse of phosphorylation of peptides by PKA (32P-ATP); type: biochemical; settings: 0.2 mM ATP, pH 7.0
Protocol: Peptides (0.01–1.0 μM) are phosphorylated by purified c-PKA in 50 mM Histidine buffer pH 7.0, 5 mM MgSO4, 1 mM EGTA, 0.1–1.0 μM c-PKA, and 0.2 mM [^32P] γ-ATP (specific activity ˜2Bq/pmol) at 30–37° C. for periods of time ranging from 0 to 60 minutes. Where the chemistry of the peptide is appropriate (i.e. having a basic charge) the phosphopeptide is captured on a cation exchange filter paper (e.g. phosphocellulose P81 paper; Whatman), and reactants are removed by extensive washing in 1% phosphoric acid (see Casnellie, 1991, Methods Enzymol., 200: 115–120). Alternatively, phosphorylation of samples is terminated by the addition of SDS-sample buffer (Laemmli, 1970, Nature, 227: 680–685) and the samples analysed by SDS-PAGE electrophoresis, autoradiography and scintillation counting of gel pieces.
A timecourse of phosphorylation of these peptides by PKA was run in 50 mM histidine/HCl (pH 7.0), 5 mM MgSO4, 5 mM NaF, 0.05 mM EGTA, 120 mM KCl with 0.2 mM ATP (30.9 cpm/pmol ^32P-ATP) and 0.5 μM PKA. […] Zip4T is also phosphorylated, but at a slower rate, with full phosphorylation achieved in 30 minutes in this assay. In this assay, the difference in cpm recovered between the Zip4 peptides and PL919Y was due to the difference in recovery of these peptides on P81 paper; however, a plateau was taken to indicate full phosphorylation.
(§1) A second set of timecourses of phosphorylation was performed on Zip4S using PKA and Ca^2+/Calmodulin-dependent Protein Kinase (CaMKII), together with positive and negative controls for CaMKII (used to confirm that the crude preparation of CaMKII had the expected characteristics of that enzyme). PKA phosphorylation was performed in 50 mM histidine/HCl (pH 7.0), 5 mM MgSO4, 5 mM NaF, 0.05 mM EGTA, 120 mM KCl with 0.2 mM ATP (39.72 cpm/pmol ^32P-ATP) and 0.25 μM PKA. CaMKII phosphorylation was performed in 50 mM histidine/HCl (pH 7.0), 5 mM MgSO4, 5 mM NaF, 120 mM KCl, 0.5 mM Ca^2+, 0.037 mg/ml calmodulin with 0.2 mM ATP (39.72 cpm/pmol ^32P-ATP) and 10% crude CaMKII. In the Ca^2+-free experiment, Ca^2+ was replaced by 0.05 mM EGTA. […] Such specificity of a modification site included in a polypeptide comprising a coiled-coil is critical for use of the invention in an intracellular environment.

[2] = tested on: Ca2+/Calmodulin-dependent Protein Kinase (CaMKII); experiment: Timecourse of phosphorylation by CaMKII (32P-ATP); type: biochemical; settings: 10% crude CaMKII, 0.5 mM Ca2+, 0.2 mM ATP
Protocol: as §1

[3] = Circular dichroism spectra and thermal denaturation of coiled-coil peptides; type: physicochemical
Protocol: The circular dichroism (measured in units of ellipticity) of proteins at 222 nm provides a measure of the amount of α-helix present in the structure, with a large, negative ellipticity indicting a high level of helicity. The coiled-coil has a distinctive α-helical CD spectrum with minima at 222 nm and 208 nm (O'Shea et al., 1989, Science, 243: 538–542). […] In all experiments described herein, peptide concentration was determined by tyrosine absorbance at 280 nm in 6M GuHCl. […] It is clear that this leucine zipper peptide began to unfold at around 35° C. and was completely unfolded by 70° C.
As in Example 1, circular dichroism was used to assess the coiled-coil structure of the Zip4 polypeptides and the disruption of that structure by phosphorylation. […] This was confirmed by the CD spectra of Zip4S and Zip4SP at 1° C. (FIG. 12).
The coiled-coil motif has a characteristic CD spectrum. As described above, measurement of circular dichroism is useful to distinguish monomeric polypeptides from oligomers and to assess the stability of the structure present, although the technique cannot give information regarding the number of monomers making up the coiled-coil structure. […] Importantly, these peptides shown only have 4.5 leucine zipper heptads, and the incomplete nature of the final heptad is likely to compromise the stability of the coiled-coil structure.

[4] = tested on: partner peptide; experiment: FRET between fluorescein- and rhodamine-labeled coiled-coil peptides (association); type: binding; settings: emission at 516 nm
Protocol: Peptides were then labeled using a method adapted from one known in the art (Hermanson, 1997, Bioconjugate Techniques, Academic Press). 20 mM fluorescein iodoacetamide (FAM) in DMSO and 0.23 mM peptide in 20 mM TES buffer, pH 7.0 were prepared. These were mixed in a molar ratio of 0.9:1 (peptide:label) and incubated at 4° C. in the dark for a minimum of 2 hours. Initially, this method was also applied to labelling with rhodamine maleimide at a ratio of 0.9:2; however, in other experiments, good labelling has been obtained using rhodamine iodoacetamide at a ratio of 0.9:1. Labelling was assessed by reverse phase HPLC (C18 column; solvent A: H2O/0.1% TFA; solvent B: acetonitrile/0.1% TFA) and MALDI-TOF mass spectrometry.
This was accompanied by an increase in fluorescence detected in the rhodamine emission region (not shown).
(§2) Fluorescence was used to report on the phosphorylation status of these peptides (FIG. 13). […] No loss of FRET was observed on addition of PKA in the absence of ATP (data not shown).

[5] = tested on: PKA; experiment: FRET report of phosphorylation of labeled peptides by PKA; type: biochemical; settings: Zip4SF with Zip4SR, ATP present
Protocol: Donor and acceptor fluorophore-labeled polypeptides comprising coiled-coils (molar equivalents of fluorophore-labeled polypeptide or molar excess of acceptor-labeled polypeptide) are first mixed (if the two coiled-coils are present on separate polypeptides). Samples are analyzed in a fluorimeter using excitation wavelengths relevant to the donor fluorescent moiety and emission wavelengths relevant to both the donor and acceptor moieties. […] Typically, measurements are performed at 0–37° C. as a function of time following the addition of the modifying enzyme (and, optionally, a modulator or candidate modulator of function for that enzyme, as described below) to the system in 50 mM histidine pH 7.0, 120 mM KCl, 5 mM MgSO4, 5 mM NaF, 0.05 mM EGTA and 0.2 mM ATP. The assay may be performed at a higher temperature if that temperature is compatible with the enzyme(s) under study.
as §2
Calculation of the ratio of fluorescence output is important, particularly for in vivo applications, thereby avoiding error due to high local concentrations of reporter in the system and enhancing the ability to observe meaningful change.

[6] = molecular target: T1, Zip4SF (not fully specified; fluorescent donor label (fluorescein, by analogy with Zip3F) on the single Cys); experiment: FRET, emission spectra
T1 peptide: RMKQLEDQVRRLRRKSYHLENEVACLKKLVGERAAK

[7] = molecular target: the molecule itself; experiment: circular dichroism, self-association

R MKQLEDQ VRRLRRK SYHLENE VACLKKL VGERAAK (RMKQLEDQVRRLRRKSYHLENEVACLKKLVGERAAK) [Zip4S, 28]
phosphorylation by PKA (extent) ([1]; 0.25 μM PKA): complete phosphorylation
phosphorylation by PKA (substrate quality, rate) ([1]; 0.5 μM PKA): good substrate
phosphorylation by CaMKII [2]: unable to phosphorylate

Zip4SP: enzymatically phosphorylated Zip4S (RMKQLEDQVRRLRRKSYHLENEVACLKKLVGERAAK; also: enzymatically phosphorylated (site not given here))
folding state in thermal melting/denaturation (ellipticity at 222 nm) ([3]; from starting temperature of 1° C.): unfolded polypeptide in solution

Zip4SF: Zip4S labeled with fluorescein (FRET donor) (RMKQLEDQVRRLRRKSYHLENEVACLKKLVGERAAK; also: labeled with fluorescein (site not given here))
FRET upon addition of Zip4SR [4]: loss of emission at 516 nm
emission at 516 nm on addition of PKA (loss of FRET) [5]: returned to above the level produced by Zip4SF alone

R MKQLEDQ VRRLRRK TYHLENE VACLKKL VGERAAK (RMKQLEDQVRRLRRKTYHLENEVACLKKLVGERAAK) [Zip4T, 29]
relative thermostability (thermal denaturation by CD) ([3]; same conditions as Zip3): more stable than was Zip4S
phosphorylation by PKA (substrate quality, rate) ([1]; 0.5 μM PKA): slower rate
time to full phosphorylation by PKA ([1]; 0.5 μM PKA): 30 min

B1: Zip4SR (peptide)
peptide: RMKQLEDQVRRLRRKSYHLENEVAC(rhodamine)LKKLVGERAAK
modifications: reading uncertain
notes: the labelling of Zip4S itself is not spelled out
binding result [6]: binds

B2: Zip 2 (peptide)
peptide: RRIRRASIDKVEELKSKNYCLENEVARLKKLVGER
notes: Initial unsuccessful reporter peptide; also called Zip2s
binding result [7]: binds

HMKQLEDKVEELLSKNYCLENEVRRLRRASFSLQ (Initial unsuccessful reporter peptide) [Zip 1]
binding result [7]: binds
